Experimental data as given in patent US12295967B2, “Pharmaceutical composition for prevention or treatment of flavivirus infection” (priority 2018, dated 2025).
Starred links: 1 amine or outer side, 2 acyl side, 3 side chain; linkers in the order of their positions; H or OH if unused. Positions of bridges follow the written chain, without caps; N, C: chain ends. Non-standard residues stand in square brackets, D forms with d. Residues, ends and D or L forms follow the SMILES beside them. *: point of attachment. hTyr(3S-OH,4S-OH,3'-OSO3H) = N[C@H](C(=O)O)[C@H](O)[C@@H](O)c1ccc(O)c(OS(=O)(=O)O)c1; Orn(4R-OH,5R-OH) = O=C([C@H](C[C@@H](O)[C@@H](O)N[*:3])N[*:1])[*:2]; Pro(3S-OH,4S-Me) = C[C@H]1CN[C@H](C(=O)O)[C@H]1O; X1 = CCCCCOc1ccc(-c2cc(-c3ccc(C(=O)*)cc3)no2)cc1; Gln(3R-OH) = NC(=O)C[C@@H](O)[C@H](N)C(=O)O; Hyp = O=C(O)[C@@H]1C[C@@H](O)CN1

These compounds were tested against T1, dengue virus RdRp (Dengue virus type 2, UniProt P29990) (assay: biochemical). Details: dengue virus RdRp enzyme activity; read-out: IC50, inhibitory target enzyme RdRp.
T1 construct: dengue virus RdRp enzyme activity
T1 sequence (P29990 2492-3391): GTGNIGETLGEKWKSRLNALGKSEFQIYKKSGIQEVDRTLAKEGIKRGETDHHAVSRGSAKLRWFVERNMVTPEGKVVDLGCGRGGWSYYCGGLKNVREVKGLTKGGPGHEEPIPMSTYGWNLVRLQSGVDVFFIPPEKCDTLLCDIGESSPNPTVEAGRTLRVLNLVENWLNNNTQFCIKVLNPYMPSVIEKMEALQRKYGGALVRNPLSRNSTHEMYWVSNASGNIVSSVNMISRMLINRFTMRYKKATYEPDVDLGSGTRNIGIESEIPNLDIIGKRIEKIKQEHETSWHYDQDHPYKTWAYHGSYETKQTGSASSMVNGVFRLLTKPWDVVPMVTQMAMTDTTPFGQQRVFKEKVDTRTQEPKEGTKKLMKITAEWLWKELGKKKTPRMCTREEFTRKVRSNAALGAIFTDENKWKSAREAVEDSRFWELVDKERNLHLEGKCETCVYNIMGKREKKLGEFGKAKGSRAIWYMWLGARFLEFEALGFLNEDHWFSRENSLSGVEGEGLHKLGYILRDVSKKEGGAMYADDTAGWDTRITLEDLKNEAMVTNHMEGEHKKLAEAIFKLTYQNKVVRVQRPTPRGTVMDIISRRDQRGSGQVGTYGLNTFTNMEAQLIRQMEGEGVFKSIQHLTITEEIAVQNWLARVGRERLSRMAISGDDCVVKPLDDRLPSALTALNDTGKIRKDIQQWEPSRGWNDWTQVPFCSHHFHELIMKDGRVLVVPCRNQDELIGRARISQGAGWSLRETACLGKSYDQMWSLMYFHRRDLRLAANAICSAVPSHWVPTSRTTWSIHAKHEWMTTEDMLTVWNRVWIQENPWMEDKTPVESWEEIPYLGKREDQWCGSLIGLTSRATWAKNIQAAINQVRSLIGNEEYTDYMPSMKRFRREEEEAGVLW

In order of falling IC50:
1. CCN(CCO)CCCC(C)Nc1ccnc2cc(Cl)ccc12 (stereo not shown) [Hydroxychloroquine]  96 µM
2. [NH2][Pt]1([NH2])[O]CC(=O)[O]1 [Nedaplatin]  86.4 µM
3. CN(C)Cc1ccc(S(=O)(=O)n2ccc(/C=C/C(=O)NO)c2)cc1 [Resminostat]  64.5 µM
4. NCC[C@H](O)C(=O)N[C@@H]1C[C@H](N)[C@@H](O[C@H]2O[C@H](CN)[C@@H](O)[C@H](O)[C@H]2O)[C@H](O)[C@H]1O[C@H]1O[C@H](CO)[C@@H](O)[C@H](N)[C@H]1O [Amikacin]  24.3 µM
5. CN1CCN(CCCN2c3ccccc3Sc3ccc(C(F)(F)F)cc32)CC1 [Trifluoperazine]  22.1 µM
6. CN[C@@H]1[C@H](O[C@H]2[C@H](O[C@H]3[C@H](O)[C@@H](O)[C@H](NC(=N)N)[C@@H](O)[C@@H]3NC(=N)N)O[C@@H](C)[C@]2(O)CO)O[C@@H](CO)[C@H](O)[C@H]1O [Dihydrostreptomycin]  18.4 µM
7. Capreomycin  5.7 µM
8. NC[C@@H]1O[C@H](O[C@H]2[C@@H](O)[C@H](O[C@@H]3[C@@H](O)[C@H](N)C[C@H](N)[C@H]3O[C@H]3O[C@H](CO)[C@@H](O)[C@H](O)[C@H]3N)O[C@@H]2CO)[C@H](N)[C@@H](O)[C@@H]1O [Paromomycin]  4.5 µM
9. NC[C@H]1O[C@H](O[C@H]2[C@H](O)[C@@H](O[C@H]3O[C@H](CO)[C@@H](O)[C@H](N)[C@H]3O)[C@H](N)C[C@@H]2N)[C@H](N)C[C@@H]1O [Tobramycin]  3 µM
10. CCN[C@@H]1C[C@H](N)[C@@H](O[C@H]2OC(CN)=CC[C@H]2N)[C@H](O)[C@H]1O[C@H]1OC[C@](C)(O)[C@H](NC)[C@H]1O [Netimicin]  2.9 µM
11. Gentamicin Sulfate  2.3 µM

The compounds below were run against T2, dengue virus helicase (Dengue virus type 2, UniProt P29990) (assay: Inhibition of dengue virus helicase activity). Details: not given.
T2 construct: dengue virus helicase activity
T2 sequence (P29990 1476-2093): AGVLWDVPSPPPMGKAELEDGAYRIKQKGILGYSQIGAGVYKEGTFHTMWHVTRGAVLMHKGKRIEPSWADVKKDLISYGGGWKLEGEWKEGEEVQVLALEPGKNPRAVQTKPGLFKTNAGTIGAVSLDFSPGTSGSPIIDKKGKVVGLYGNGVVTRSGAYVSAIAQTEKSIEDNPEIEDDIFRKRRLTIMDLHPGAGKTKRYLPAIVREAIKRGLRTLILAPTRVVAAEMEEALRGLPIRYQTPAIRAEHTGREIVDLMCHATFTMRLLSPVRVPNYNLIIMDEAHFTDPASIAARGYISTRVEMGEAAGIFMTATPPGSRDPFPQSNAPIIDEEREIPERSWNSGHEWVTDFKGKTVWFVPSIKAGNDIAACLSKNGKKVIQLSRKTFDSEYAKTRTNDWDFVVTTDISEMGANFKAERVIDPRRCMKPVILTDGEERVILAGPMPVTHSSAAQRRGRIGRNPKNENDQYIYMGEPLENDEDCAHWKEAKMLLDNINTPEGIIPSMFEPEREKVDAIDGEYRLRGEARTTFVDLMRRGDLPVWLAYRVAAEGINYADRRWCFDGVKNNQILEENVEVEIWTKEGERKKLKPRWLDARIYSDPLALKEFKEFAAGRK
Assay type: biochemical
Excerpt: A degree of inhibition of dengue virus helicase activity depending on the concentrations of 6 compounds was confirmed (IC50 values presented, FIG. 4).

In order of rising IC50:
1. CCCCCOc1ccc(-c2cc(-c3ccc(C(=O)N[C@H]4C[C@@H](O)[C@@H](O)NC(=O)[C@@H]5[C@@H](O)[C@@H](C)CN5C(=O)[C@H]([C@H](O)CC(N)=O)NC(=O)[C@H]([C@H](O)[C@@H](O)c5ccc(O)c(OS(=O)(=O)O)c5)NC(=O)[C@@H]5C[C@@H](O)CN5C(=O)[C@H]([C@@H](C)O)NC4=O)cc3)no2)cc1 [Micafungin] (X1-[Orn(4R-OH,5R-OH)]T[Hyp][hTyr(3S-OH,4S-OH,3'-OSO3H)][Gln(3R-OH)][Pro(3S-OH,4S-Me)]; lactam 1-C)  5 µM
2. CC(=O)OCC1=C(C(=O)O)N2C(=O)[C@@H](NC(=O)Cc3cccs3)[C@H]2SC1 [Cephalothin]  26 µM
3. O=C1Nc2ccc(Cl)cc2[C@@](C#CC2CC2)(C(F)(F)F)O1 [Efavirenz]  38.5 µM

Same assay, conditions: dengue virus helicase activity; read-out: IC50, inhibitory target enzyme Helicase

In order of rising IC50:
1. Bleomycin  1.4 µM
2. C[C@@H]1[C@H](O)[C@@H](C)/C=C/C=C/CC/C=C/C=C/C=C/C=C/C(O[C@H]2O[C@H](C)[C@@H](O)[C@H](N)[C@@H]2O)CC2O[C@](O)(CC(O)C(O)CCC(O)CC(O)CC(O)CC(=O)O[C@H]1C)CC(O)C2C(=O)O (stereo partly shown) [Nystatin]  13.1 µM
3. CCCCCCCCCCCCCCCCOP(=O)([O-])OCC[N+](C)(C)C [Miltefosine]  17.5 µM

These compounds were tested on DENV (assay: DENV viremia reduction in mouse blood, dengue infection model (AG129 mouse)). Details: micafungin sodium IP, miltefosine oral, FIG. 5.
Assay type: in vivo
Experimental: On day 3, blood was collected from each mouse and transferred to an EDTA coated anticoagulant tube. After shaking for 10 minutes and gently mixing, 20 μl of each sample was analyzed by whole blood count using HEMAVET 950FS (Drew Scientific). The measured value of each factor was semi-quantified relative to that of the uninfected control. Plasma was isolated by centrifugation at 8000 g and 4° C. for 15 minutes in order to analyze cytokine hyperemia and expression changes. Plasma virus titer (viremia) and viral RNA expression in whole blood were analyzed by quantitative real-time PCR (qRT-PCR).
For target gene amplification, each primer was designed taking into account overlap between two exons of the target gene having a GC content of less than 50% and an expected amplicon size of about 100 bps. For quantification of viral RNA, quantitative real time PCR (qRT-PCR) was performed. Each reaction was performed in 20 μL volume using SYBR green master mix. Quantstudio 3™ (Applied Biosystems Inc., USA) was used for the present study in two-stage amplification process. […]
Virus in plasma was calculated according to an equation of standard curve. […] For cell-based group and mouse organ samples (including whole blood), semi-quantitative viral RNA was analyzed for GAPDH as an endogenous control. […]

`CCCCCOc1ccc(-c2cc(-c3ccc(C(=O)N[C@H]4C[C@@H](O)[C@@H](O)NC(=O)[C@@H]5[C@@H](O)[C@@H](C)CN5C(=O)[C@H]([C@H](O)CC(N)=O)NC(=O)[C@H]([C@H](O)[C@@H](O)c5ccc(O)c(OS(=O)(=O)O)c5)NC(=O)[C@@H]5C[C@@H](O)CN5C(=O)[C@H]([C@@H](C)O)NC4=O)cc3)no2)cc1` [Micafungin] (X1-[Orn(4R-OH,5R-OH)]T[Hyp][hTyr(3S-OH,4S-OH,3'-OSO3H)][Gln(3R-OH)][Pro(3S-OH,4S-Me)]; lactam 1-C) was tested, and the dengue viremia was “significantly reduced”.
In the case of `CCCCCCCCCCCCCCCCOP(=O)([O-])OCC[N+](C)(C)C` [Miltefosine], the dengue viremia is reported as “significantly reduced”.
